Among the data in patent US10098878B2, “HIF-2α inhibitors for treating iron overload disorders” (The Board of Regents of the University of Texas System, priority 2014, dated 2018) are IC50 values, retold here.

T1 sequence (Q99814 240-350 limits assumed): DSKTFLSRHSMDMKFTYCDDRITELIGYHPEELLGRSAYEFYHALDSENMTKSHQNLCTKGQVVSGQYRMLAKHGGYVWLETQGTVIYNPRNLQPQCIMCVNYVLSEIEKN

The first assay concerns the target T1, HIF-2α HIS TAG-PASB Domain (Homo sapiens, UniProt Q99814).
T1 construct: 100 nM HIF-2α HIS TAG-PASB Domain
Description: HIF-2α Scintillation Proximity Assay (SPA). The following applies: 150 nM Compound 211 probe, 100 nM HIF-2α HIS TAG-PASB Domain; read-out: SPA IC50. It is filed as binding. The procedure:
The total assay volume was about 100 μL in the following configuration: 2 μL compound in 100% DMSO, 88 μL buffer with protein and probe and 10 μL of SPA beads. […] The percent inhibition was determined and IC50 values were calculated using the Dotmatics system based on the following equation: % inhibition=[(high control−sample)/(high control−low control)]×100.
For orientation: SPA uses beads or plates that emit light when radiolabelled molecules are held near them.
In the case of `N#Cc1cncc(Oc2ccc3c(c2Br)[C@@H](O)CS3(=O)=O)c1` [Compound 184, (R)-5-((4-bromo-3-hydroxy-1,1-dioxido-2,3-dihydrobenzo[b]thiophen-5-yl)oxy)nicotinonitrile], the IC50 was determined as 10.2 µM.
`CS(=O)(=O)c1ccc(Oc2cncc(Br)c2)c2c1C(=O)C(F)(F)C2` [Compound 87, 4-((5-Bromopyridin-3-yl)oxy)-2,2-difluoro-7-(methylsulfonyl)-2,3-dihydro-1H-inden-1-one]: the IC50 was 5.3 µM.
On the same count and under the same terms, to `N=S1(=O)CC(O)c2c1ccc(Oc1cc(F)cc(F)c1)c2C(F)F` (stereo not drawn) [Compound 160, 4-(Difluoromethyl)-5-(3,5-difluorophenoxy)-3-hydroxy-1-imino-2,3-dihydro-1H-1λ^4-benzo[b]thiophene 1-oxide] belongs 14.2 µM; to `N#Cc1cc(F)cc(Oc2ccc3c(c2Br)C(=O)C(F)(F)S3(=O)=O)c1` [Compound 157, 3-((4-Bromo-2,2-difluoro-1,1-dioxido-3-oxo-2,3-dihydrobenzo[b]thiophen-5-yl)oxy)-5-fluorobenzonitrile], 9.7 µM; to `N#CN=S1(=O)CC(O)c2c1ccc(Oc1cc(F)cc(F)c1)c2C(F)F` (stereo not drawn) [Compound 159, N-(4-(difluoromethyl)-5-(3,5-difluorophenoxy)-3-hydroxy-1-oxido-2,3-dihydro-1λ^4-benzo[b]thiophen-1-ylidene)cyanamide], 17.4 µM.
On the same count and under the same terms, to `CC1(C)C(O)c2c(ccc(Oc3cc(F)cc(Cl)c3)c2C#N)S1(=O)=O` (stereo not drawn) [Compound 172, 5-(3-Chloro-5-fluoro-phenoxy)-3-hydroxy-2,2-dimethyl-1,1-dioxo-3H-benzothiophene-4-carbonitrile] belongs 19.6 µM.
Still for that read-out and setting: the same measure for `CS(=O)(=O)c1ccc(Oc2cncc(Cl)c2)c2c1[C@H](O)C(F)(F)[C@H]2F` [Compound 96, (1S,3S)-4-((5-chloropyridin-3-yl)oxy)-2,2,3-trifluoro-7-(methylsulfonyl)-2,3-dihydro-1H-inden-1-ol]: 2.3 µM; for `C=C1CC(O)c2c(S(C)(=O)=O)ccc(Oc3cc(F)cc(Cl)c3)c21` (stereo not drawn) [Compound 44, 4-(3-chloro-5-fluorophenoxy)-3-methylene-7-(methylsulfonyl)-2,3-dihydro-1H-inden-1-ol]: 3.39 µM; for `O=S1(=O)C[C@H](O)c2c1ccc(Oc1cc(F)cc(F)c1)c2Br` [Compound 177, (R)-4-bromo-5-(3,5-difluorophenoxy)-3-hydroxy-2,3-dihydrobenzo[b]thiophene 1,1-dioxide]: 4.66 µM.
With `N#CN=S(=O)(CF)c1ccc(Oc2cc(F)cc(C#N)c2)c2c1[C@H](O)CC2` (single isomer, unassigned) [Compound 47], the IC50 was determined as 1.4 µM.
For `O=S1(=O)C[C@H](O)c2c1ccc(Oc1cccc(F)c1)c2Br` [Compound 183, (R)-4-bromo-5-(3-fluorophenoxy)-3-hydroxy-2,3-dihydrobenzo[b]thiophene 1,1-dioxide], the IC50 stood at 13.7 µM.
With `COCCNC1c2c(ccc(Oc3cc(F)cc(C#N)c3)c2C(F)F)S(=O)(=O)C1(F)F` (stereo not drawn) [Compound 146, 3-((4-(Difluoromethyl)-2,2-difluoro-3-((2-methoxyethyl)amino)-1,1-dioxido-2,3-dihydrobenzo[b]thiophen-5-yl)oxy)-5-fluorobenzonitrile], the IC50 was 2.89 µM.
Same read-out and setting: to `N#CN=S(=O)(c1ccc(Oc2cc(F)cc(C#N)c2)c2c1[C@H](O)[C@H](F)C2)C(F)F` (single isomer, unassigned) [Compound 61] belongs 12.4 µM; to `N#Cc1cncc(Oc2ccc(S(=O)(=O)CF)c3c2[C@H](F)C(F)(F)[C@H]3O)c1` [Compound 109, 5-(((1S,3S)-2,2,3-trifluoro-7-((fluoromethyl)sulfonyl)-1-hydroxy-2,3-dihydro-1H-inden-4-yl)oxy)nicotinonitrile], 2.2 µM; to `N#Cc1cc(F)cc(Oc2ccc3c(c2C(F)F)[C@H](N)C(F)(F)S3(=O)=O)c1` [Compound 148, (S)-3-((3-Amino-4-(difluoromethyl)-2,2-difluoro-1,1-dioxido-2,3-dihydrobenzo[b]thiophen-5-yl)oxy)-5-fluorobenzonitrile], 13.4 µM.
The same measure, in the same setting: to `C[C@]1(F)Cc2c(Oc3cc(F)cc(C#N)c3)ccc(S(C)(=O)=O)c2[C@@H]1O` [Compound 62, 3-fluoro-5-(((1S,2S)-2-fluoro-1-hydroxy-2-methyl-7-(methylsulfonyl)-2,3-dihydro-1H-inden-4-yl)oxy)benzonitrile] belongs 16.1 µM; to `CS(=O)(=O)c1ccc(Oc2cncc(Br)c2)c2c1[C@H](O)[C@H](F)C2` [Compound 90, (1S,2R)-4-((5-Bromopyridin-3-yl)oxy)-2-fluoro-7-(methylsulfonyl)-2,3-dihydro-1H-inden-1-ol], 1.28 µM.
Same read-out and setting: to `CS(=O)(=O)c1ccc(Oc2cc(F)cc(C#N)c2)c2c1[C@H](O)C(F)(F)[C@H]2O` [Compound 75, 3-[(1S,3S)-2,2-difluoro-1,3-dihydroxy-7-methylsulfonyl-indan-4-yl]oxy-5-fluoro-benzonitrile] belongs 8.7 µM; to `COc1cncc(Oc2ccc3c(c2Br)[C@@H](O)C(F)(F)S3(=O)=O)c1` [Compound 193, (R)-4-bromo-2,2-difluoro-3-hydroxy-5-((5-methoxypyridin-3-yl)oxy)-2,3-dihydrobenzo[b]thiophene 1,1-dioxide], 14.3 µM.
On to `N#Cc1cc(F)cc(Oc2ccc3c(c2C#CCF)C(O)C(F)(F)S3(=O)=O)c1` (stereo not drawn) [Compound 174, 3-[[2,2-Difluoro-4-(3-fluoroprop-1-ynyl)-3-hydroxy-1,1-dioxo-3H-benzothiophen-5-yl]oxy]-5-fluoro-benzonitrile], for which the IC50 stood at 10.9 µM.
Consider `N#CN=S(=O)(CF)c1ccc(Oc2cc(F)cc(C#N)c2)c2c1[C@H](O)[C@H](F)C2` (single isomer, unassigned) [Compound 41], for which the IC50 is 0.13 µM.
The same measure, in the same setting: the same measure for `NC1c2c(ccc(Oc3cc(F)cc(F)c3)c2C(F)F)S(=O)(=O)C1F` (stereo not drawn) [Compound 130, 3-amino-4-(difluoromethyl)-5-(3,5-difluorophenoxy)-2-fluoro-2,3-dihydrobenzo[b]thiophene 1,1-dioxide]: 1.5 µM; for `N#Cc1c(Oc2cc(F)cc(Cl)c2)ccc2c1CCS2(=O)=O` [Compound 115, 5-(3-Chloro-5-fluorophenoxy)-2,3-dihydrobenzo[b]thiophene-4-carbonitrile 1,1-dioxide]: 4.9 µM.
Still for that read-out and setting: to `O=C1c2c(ccc(Oc3cc(F)cc(Cl)c3)c2Br)S(=O)(=O)C12CC2` [Compound 168, 4-Bromo-5-(3-chloro-5-fluoro-phenoxy)-1,1-dioxo-spiro[benzothiophene-2,1′-cyclopropane]-3-one] belongs 6.3 µM.
Same read-out and setting: to `N#Cc1cc(F)cc(Oc2ccc3c(c2C(F)F)C(=N)C(F)S3(=O)=O)c1` (stereo not drawn) [Compound 137, 3-((4-(difluoromethyl)-2-fluoro-3-imino-1,1-dioxido-2,3-dihydrobenzo[b]thiophen-5-yl)oxy)-5-fluorobenzonitrile] belongs 5.8 µM; to `Cc1cc(C#N)cc(Oc2ccc3c(c2C(F)F)C(=O)C(F)(F)S3(=O)=O)c1` [Compound 155, 3-((4-(Difluoromethyl)-2,2-difluoro-1,1-dioxido-3-oxo-2,3-dihydrobenzo[b]thiophen-5-yl)oxy)-5-methylbenzonitrile], 18.7 µM; to `N#Cc1cc(F)cc(Oc2ccc3c(c2Br)[C@@H](O)CS3(=O)=O)c1` [Compound 179, (R)-3-((4-Bromo-3-hydroxy-1,1-dioxido-2,3-dihydrobenzo[b]thiophen-5-yl)oxy)-5-fluorobenzonitrile], 13.4 µM.
On to `O=S1(=O)CCc2c1ccc(Oc1cc(F)cc(Cl)c1)c2Br` [Compound 114, 4-Bromo-5-(3-chloro-5-fluorophenoxy)-2,3-dihydrobenzo[b]thiophene 1,1-dioxide], for which the IC50 stood at 4.4 µM.
On to `O=C1CS(=O)(=O)c2ccc(Oc3cc(F)cc(F)c3)cc21` [Compound 181, 5-(3,5-Difluorophenoxy)benzo[b]thiophen-3(2H)-one 1,1-dioxide], for which the IC50 was 17.6 µM.
Same read-out and setting: to `O=S(=O)(c1ccc(Oc2cc(F)cc(Cl)c2)c2c1[C@H](O)C[C@@H]2CO)C(F)(F)F` [Compound 45, (1R,3S)-4-(3-chloro-5-fluorophenoxy)-3-(hydroxymethyl)-7-((trifluoromethyl)sulfonyl)-2,3-dihydro-1H-inden-1-ol] belongs 0.73 µM.
As to `O=S1(=O)CC(O)c2c1ccc(Oc1cc(F)cc(F)c1)c2Br` (stereo not drawn) [Compound 182, 4-Bromo-5-(3,5-difluorophenoxy)-3-hydroxy-2,3-dihydrobenzo[b]thiophene 1,1-dioxide], the IC50 was 17.1 µM.
In the case of `O=C1c2c(ccc(Oc3cc(F)cc(Cl)c3)c2Br)S(=O)(=O)C1(F)F` [Compound 118, 4-Bromo-5-(3-chloro-5-fluorophenoxy)-2,2-difluorobenzo[b]thiophen-3(2H)-one 1,1-dioxide], the IC50 stood at 1.4 µM.
On the same count and under the same terms, to `N#CN=S(=O)(c1ccc(Oc2cc(F)cc(C#N)c2)c2c1[C@H](O)[C@H](F)C2)C(F)F` (single isomer, unassigned) [Compound 63] belongs 16.1 µM.

Still in this assay, the particulars now being: SPA IC50, 150 nM Compound 211 probe, 100 nM HIF-2α HIS TAG-PASB Domain.
For the molecule `O=S1(=O)CCC(O)c2c1ccc(Oc1cc(F)cc(F)c1)c2C(F)F` (stereo not drawn) [Compound 166, 5-(Difluoromethyl)-6-(3,5-difluorophenoxy)-4-hydroxythiochromane 1,1-dioxide], the IC50 is 4.1 µM.
Turning to `CC1(C)C(O)c2c(ccc(Oc3cc(F)cc(Cl)c3)c2Br)S1(=O)=O` (stereo not drawn) [Compound 170, 4-Bromo-5-(3-chloro-5-fluoro-phenoxy)-2,2-dimethyl-1,1-dioxo-3H-benzothiophen-3-ol], the midpoint of inhibition, the IC50, lay at 21.9 µM.
On the same count and under the same terms, to `O=S1(=O)c2ccc(Oc3cc(F)cc(Cl)c3)cc2C(O)C1(F)F` (stereo not drawn) [Compound 126, 5-(3-Chloro-5-fluorophenoxy)-2,2-difluoro-3-hydroxy-2,3-dihydrobenzo[b]thiophene 1,1-dioxide] belongs 1.88 µM.

In general, IC50 refers to the midpoint of a concentration-inhibition curve.
